# Assay results taken from publication PMC9414684, “Quantitative Structure–Neurotoxicity Assessment and In Vitro Evaluation of Neuroprotective and MAO-B Inhibitory Activities of Series N′-substituted 3-(1,3,7-trimethyl-xanthin-8-ylthio)propanehydrazides” (Molecules, 2022).
# How the values were obtained:
# [1] = test system: isolated rat synaptosomes; experiment: 6-OHDA-induced oxidative stress model, GSH level; assay type: cell-based; conditions: for GSH levels stored (protected): 6-OHDA-induced oxidative stress, against the toxic agent
# Method: The level of reduced glutathione was determined by measuring the non-protein SH-groups after precipitation of the proteins with trichloroacetic acid. After the incubation, synaptosomes were centrifuged at 400× g for 3 min. These diment were treated with 5% trichloroacetic acid and left for 10 min on ice. Samples were centrifuged at 8000× g for 10 min (2 °C). The supernatant was removed to determine the level of GSH and was stored at −20 °C. Immediately before the measurement, the samples were neutralized with 5 N NaOH.
# The presence of thiols in the supernatant was determined using Ellman’s reagent. The resulting yellow color was measured spectrophotometrically at λ = 412 nm.
# This in vitro model resembles the neurodegenerative processes occurring in PD. Dopamine metabolism and oxidation lead to the formation of ROS and reactive quinones. They induce dopamine neurotoxicity and neurodegeneration. The synaptosomes were incubated with 150 μmol 6-OHDA for 1 h.
# [2] = test system: isolated rat brain synaptosomes; experiment: Synaptosomal viability (MTT test), compounds applied alone; assay type: cell-based; conditions: 100 µmol; for relative synaptosomal vitality (RV): synaptosomal viability relative to caffeine (1) = 1; for decrease of synaptosomal viability: applied alone, against the control (untreated synaptosomes); for neurotoxicity on synaptosomes in words: single application, compared to the control and to caffeine
# Method: (§1) The synaptosomes and mitochondria were prepared as explained in [54, 55] with the help of a colloidal silicon solution (Percoll): 1. Preparation of 90% stock solution of Percoll. 2. Preparation of Percoll solutions with two concentrations, 16% and 10%. An amount of 4 ml of Percoll 16% and 10% were added in the tubes. 3. An amount of 90% Percoll (7.5% Percoll) was added to the sediment from the last centrifugation. The tubes were centrifuged for 20 min at 15,000× g at 4 °C, resulting in the formation of three layers. The lower layer contained mitochondria, the upper layer, lipids and the middle layer (between 16% and 10% Percoll), synaptosomes. The middle and the lower layers of each tube were harvested and buffer B with glucose was added. The mixture was centrifuged at 10,000× g for 20 min at 4 °C. After centrifugation, the sediment with the synaptosomes and mitochondria was mixed with buffer B with glucose.
# After the incubation, the synaptosomes were centrifuged three times at 15,000× g for 1 min. An MTT test was performed to determine synaptosomal vitality by the method described in the literature. […]
# [3] = target: T1, human recombinant MAO-B enzyme (hMAOB) (Homo sapiens, UniProt P27338); experiment: Monoamine oxidase B activity, fluorimetric Amplex Ultra Red assay, tyramine substrate; assay type: biochemical; conditions: 1 µmol, applied alone, against the control (pure hMAOB)
# T1 sequence (P27338 1-520): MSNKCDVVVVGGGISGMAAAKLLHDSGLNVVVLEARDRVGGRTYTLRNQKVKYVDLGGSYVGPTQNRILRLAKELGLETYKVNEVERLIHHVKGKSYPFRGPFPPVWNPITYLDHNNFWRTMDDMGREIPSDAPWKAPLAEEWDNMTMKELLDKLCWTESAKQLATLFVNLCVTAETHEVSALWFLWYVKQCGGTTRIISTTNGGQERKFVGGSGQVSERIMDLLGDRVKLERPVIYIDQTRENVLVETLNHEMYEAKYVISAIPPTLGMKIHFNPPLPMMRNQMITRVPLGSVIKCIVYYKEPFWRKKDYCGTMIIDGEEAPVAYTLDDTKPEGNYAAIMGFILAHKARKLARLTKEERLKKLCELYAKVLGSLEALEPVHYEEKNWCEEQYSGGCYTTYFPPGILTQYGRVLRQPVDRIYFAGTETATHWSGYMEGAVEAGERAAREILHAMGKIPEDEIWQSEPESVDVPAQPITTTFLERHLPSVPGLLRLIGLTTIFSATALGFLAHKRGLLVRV
# Method: Monoamine oxidase activity assay of recombinant human MAO-B was performed using a fluorimetric method by Amplex Ultra Redreagent [63]. Tyramine hydrochloride was used as substrate.
# The MAO-B activity was normalized as a percentage of the untreated control set as 100% and the results were expressed as mean values and standard deviation (±SD). Statistical analysis was performed by one-way analysis of variance (ANOVA) with a post hoc multiple comparisons procedure (Dunnet’s test) to assess the statistical differences in case of normal distribution. Values of p < 0.05, p < 0.01 and p < 0.001 were considered as statistically significant.
# [4] = test system: isolated rat brain mitochondria; experiment: MDA production in isolated brain mitochondria, compounds applied alone; assay type: cell-based; conditions: 100 µmol, against the control (untreated mitochondria)
# Method: The synaptosomes and mitochondria were prepared as explained in [54, 55] with the help of a colloidal silicon solution (Percoll): 1. […] An amount of 4 ml of Percoll 16% and 10% were added in the tubes. 3. An amount of 90% Percoll (7.5% Percoll) was added to the sediment from the last centrifugation. The tubes were centrifuged for 20 min at 15,000× g at 4 °C, resulting in the formation of three layers. The lower layer contained mitochondria, the upper layer, lipids and the middle layer (between 16% and 10% Percoll), synaptosomes. The middle and the lower layers of each tube were harvested and buffer B with glucose was added. The mixture was centrifuged at 10,000× g for 20 min at 4 °C. After centrifugation, the sediment with the synaptosomes and mitochondria was mixed with buffer B with glucose. […] After that, the tubes were maintained in a bath filled with boiling water. Finally, the tubes were transferred to an ice bath and butanol (0.4 mL) was poured into each tube. In the next stage, centrifugation of the tubes was carried out at 3500× g for 10 min. Following that, assessment of the total quantity of MDA shaped in each sample was carried out using a spectrophotometer (UV-Vis Split) to measure the supernatant’s absorbance at 532 nm. The mitochondria were incubated with 75 µmol t-BuOOH [59]. The quantity of the lipid peroxidation product MDA was assessed, using the method, described in the literature.
# [5] = test system: isolated rat synaptosomes; experiment: 6-OHDA-induced oxidative stress model, synaptosomal vitality; assay type: cell-based; conditions: against the toxic agent
# Method: After the incubation, the synaptosomes were centrifuged three times at 15,000× g for 1 min. An MTT test was performed to determine synaptosomal vitality by the method described in the literature [56]. […] The synaptosomes were incubated with 150 μmol 6-OHDA for 1 h [58].
# isolated rat microsomes = experiment: Fe2+/AA-induced lipid peroxidation model, MDA production; assay type: cell-based; conditions: 100 µmol, compared to the toxic agent
# Method: The microsomes were pre-incubated with the analyzed compounds for 15 min at 37 °C. The reaction was started with a solution of iron sulphate 20 μmol and ascorbic acid 0.5 mmol. […] After starting the reaction, the LPO and the MDA quantity was assessed [62].
# The quantity of the lipid peroxidation product MDA was assessed, using the method, described in the literature [62].
# [6] = test system: isolated rat brain microsomes; experiment: MDA production in isolated brain microsomes, compounds applied alone; assay type: cell-based; conditions: 100 µmol; for pro-oxidant effect (MDA production): applied alone, compared to the control (untreated microsomes); for neurotoxicity on microsomes in words: tested alone, compared to the control and to caffeine
# Method: The brain microsomes were prepared according to the procedure described in [61]. […] The homogenate was centrifugated at 17,000× g for 30 min. The pellet was suspended in 4 vol of the homogenization buffer and centrifuged at 17,000× g for a further period of 30 min. The supernatants from both centrifugations were combined (post-mitochondrial supernatant) and centrifuged at 100,000× g for 1 h. The pellet was resuspended in the above buffer and centrifuged at 100,000× g for 1 h. The resulting pellet was frozen in the buffer with glycerol.
# The quantity of the lipid peroxidation product MDA was assessed, using the method, described in the literature.
# Analysis of quantitative structure–neurotoxicity relationships employed the data from in vitro assessments of synaptosome viability (%) and MDA production in microsomal fractions (nmol/0.1 mg protein) as indicators for the neurotoxicity of compounds.
# [7] = test system: isolated rat brain mitochondria; experiment: GSH level in isolated brain mitochondria, compounds applied alone; assay type: cell-based; conditions: 100 µmol, against the control (untreated mitochondria)
# Method: as §1
# The DNTB spectrophotometric technique explained in [60] was applied for GSH content measurement in brain mitochondria. Then, 0.04% DTNB was mixed with the mitochondrial suspensions (0.5 mg protein/mL) in 0.1 mol/L of phosphate buffers (pH 7.4). The development of the yellow color was read at 412 nm (spectrophotometer UV-Vis Split).
# MAO-B = target: MAO-B; set-up: method as in PMID 19342233; conditions: MAO-B inhibitor activity; cited from earlier work
smiles,measurement,setting,value
"NCCc1cc(O)c(O)cc1O [6-OHDA, 6-hydroxydopamine, reference compound]",decrease of GSH levels by the toxic agent,"[1]; 6-OHDA applied alone (150 μmol, 1 h), against the control (untreated synaptosomes)",50%
Cn1c(=O)c2c(nc(SCCC(=O)NN=Cc3ccccc3)n2C)n(C)c1=O [6a],relative synaptosomal vitality (RV),[2],0.743
Cn1c(=O)c2c(nc(SCCC(=O)NN=Cc3ccc([N+](=O)[O-])cc3)n2C)n(C)c1=O [6b],relative synaptosomal vitality (RV),[2],0.703
Cn1c(=O)c2c(nc(SCCC(=O)NN=Cc3c(Cl)cccc3Cl)n2C)n(C)c1=O [6c],relative synaptosomal vitality (RV),[2],0.689
Cn1c(=O)c2c(nc(SCCC(=O)NN=Cc3cccc(Cl)c3)n2C)n(C)c1=O [6d],relative synaptosomal vitality (RV),[2],0.730
Cn1c(=O)c2c(nc(SCCC(=O)NN=Cc3ccc(Br)cc3)n2C)n(C)c1=O [6e],relative synaptosomal vitality (RV),[2],0.743
Cn1c(=O)c2c(nc(SCCC(=O)NN=Cc3ccc(C(F)(F)F)cc3)n2C)n(C)c1=O [6f],relative synaptosomal vitality (RV),[2],0.757
COc1ccc(C=NNC(=O)CCSc2nc3c(c(=O)n(C)c(=O)n3C)n2C)cc1OC [6g],relative synaptosomal vitality (RV),[2],0.716
COc1cc(C=NNC(=O)CCSc2nc3c(c(=O)n(C)c(=O)n3C)n2C)cc(OC)c1OC [6h],relative synaptosomal vitality (RV),[2],0.703
COc1cc(C=NNC(=O)CCSc2nc3c(c(=O)n(C)c(=O)n3C)n2C)cc(OC)c1O [6i],relative synaptosomal vitality (RV),[2],0.743
COc1cc(C=NNC(=O)CCSc2nc3c(c(=O)n(C)c(=O)n3C)n2C)ccc1O [6j],relative synaptosomal vitality (RV),[2],0.730
"COc1cccc(C=NNC(=O)CCSc2nc3c(c(=O)n(C)c(=O)n3C)n2C)c1OC [6k, N′-(2,3-dimethoxybenzylidene)-3-(1,3,7-trimethyl-2,6-dioxo-2,3,6,7-tetrahydro-1H-purin-8-ylthio)propanehydrazide]",decrease of synaptosomal viability,[2],29%
same,neurotoxicity on synaptosomes in words,[2],lowest neurotoxicity
same,relative synaptosomal vitality (RV),[2],0.959
same,GSH levels stored (protected),[1],20%
same,inhibition of hMAOB activity,[3],25%
same,change of MDA production,[4],did not change statistically significantly
same,protection of synaptosomal vitality,[5],20%
same,reduction of MDA production,isolated rat microsomes,38%
same,pro-oxidant effect (MDA production),[6],did not show any statistically significant pro-oxidant effect
same,neurotoxicity on microsomes in words,[6],lowest neurotoxicity
"Cn1c(=O)c2c(nc(SCCC(=O)NN=Cc3ccccc3O)n2C)n(C)c1=O [6l, N′-(2-hydroxybenzylidene)-3-(1,3,7-trimethyl-2,6-dioxo-2,3,6,7-tetrahydro-1H-purin-8-ylthio)propanehydrazide]",decrease of synaptosomal viability,[2],28%
same,neurotoxicity on synaptosomes in words,[2],lowest neurotoxicity
same,relative synaptosomal vitality (RV),[2],0.973
same,GSH levels stored (protected),[1],42%
same,inhibition of hMAOB activity,[3],30%
same,change of MDA production,[4],did not change statistically significantly
same,protection of synaptosomal vitality,[5],36%
same,neurotoxic effect on GSH level,[7],did not show any statistically significant neurotoxic effect
same,reduction of MDA production,isolated rat microsomes,50%
same,pro-oxidant effect (MDA production),[6],did not show any statistically significant pro-oxidant effect
same,neurotoxicity on microsomes in words,[6],lowest neurotoxicity
Cc1cc(C)c(C=NNC(=O)CCSc2nc3c(c(=O)n(C)c(=O)n3C)n2C)c(C)c1 [6m],relative synaptosomal vitality (RV),[2],0.716
COc1cccc(C=NNC(=O)CCSc2nc3c(c(=O)n(C)c(=O)n3C)n2C)c1O [6n],relative synaptosomal vitality (RV),[2],0.689
Cn1c(=O)c2c(nc(SCCC(=O)NN=Cc3cccc([N+](=O)[O-])c3)n2C)n(C)c1=O [6o],relative synaptosomal vitality (RV),[2],0.757
"Cn1c(=O)c2c(ncn2C)n(C)c1=O [compound 1, caffeine, reference compound]",decrease of synaptosomal viability,[2],26%
same,neurotoxicity on synaptosomes in words,[2],lowest neurotoxicity
same,GSH levels stored (protected),[1],30%
same,change of MDA production,[4],did not change statistically significantly
same,Ki,MAO-B,3.6 mM
same,pro-oxidant effect (MDA production),[6],did not show any statistically significant pro-oxidant effect
same,neurotoxicity on microsomes in words,[6],lowest neurotoxicity
